Test results as given in US11524966B1 (Valo Early Discovery, Inc., priority 2017, dated 2022).

molecular target: T1, USP25 (USP25-His6, Boston Biochem E-546) (Homo sapiens, UniProt Q9UHP3); experiment: Ubiquitin-Rhodamine 110 Assay for USP25 Activity, Example A-2; type: biochemical; details: Ub-Rh110 assay, Example A-2; read-out: USP25 A-2 IC50 range
T1 construct: His6; purchased Boston Biochem E-546
T1 sequence (Q9UHP3 1-1055): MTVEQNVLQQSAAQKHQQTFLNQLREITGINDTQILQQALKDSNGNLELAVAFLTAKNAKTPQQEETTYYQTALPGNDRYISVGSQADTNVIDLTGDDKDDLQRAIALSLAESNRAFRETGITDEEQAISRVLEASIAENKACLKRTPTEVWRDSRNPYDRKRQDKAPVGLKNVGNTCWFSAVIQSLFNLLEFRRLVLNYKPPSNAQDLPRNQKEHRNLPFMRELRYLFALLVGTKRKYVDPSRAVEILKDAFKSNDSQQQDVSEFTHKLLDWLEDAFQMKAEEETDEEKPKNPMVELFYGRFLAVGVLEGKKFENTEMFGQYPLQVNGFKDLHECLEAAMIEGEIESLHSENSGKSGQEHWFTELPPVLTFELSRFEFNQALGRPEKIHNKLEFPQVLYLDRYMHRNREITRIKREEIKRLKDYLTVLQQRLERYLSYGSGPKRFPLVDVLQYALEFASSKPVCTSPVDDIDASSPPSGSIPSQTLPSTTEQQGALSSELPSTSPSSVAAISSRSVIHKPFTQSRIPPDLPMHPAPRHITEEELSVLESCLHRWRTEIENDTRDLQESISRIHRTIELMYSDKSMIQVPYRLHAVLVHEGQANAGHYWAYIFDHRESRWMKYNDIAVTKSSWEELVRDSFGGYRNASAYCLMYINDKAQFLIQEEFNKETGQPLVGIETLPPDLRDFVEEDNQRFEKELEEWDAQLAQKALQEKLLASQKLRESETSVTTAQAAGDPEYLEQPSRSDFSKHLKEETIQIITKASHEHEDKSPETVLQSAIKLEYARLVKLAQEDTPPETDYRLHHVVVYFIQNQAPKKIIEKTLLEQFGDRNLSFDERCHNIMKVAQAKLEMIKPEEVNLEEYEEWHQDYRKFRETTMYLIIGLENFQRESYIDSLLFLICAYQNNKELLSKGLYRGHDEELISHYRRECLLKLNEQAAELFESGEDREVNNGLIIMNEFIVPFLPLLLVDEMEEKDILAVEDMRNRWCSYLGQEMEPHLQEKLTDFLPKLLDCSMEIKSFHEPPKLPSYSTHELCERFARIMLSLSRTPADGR
Experimental: The assay was performed in a final volume of 9 μL in assay buffer containing 20 mM Tris-HCl (pH 8.0, (1M Tris-HCl, pH 8.0 solution; Corning 46-031-CM)), 3 mM BME (2-Mercaptoethanol; Sigma 63689-25ML-F), 0.03% BGG (0.22 μM filtered, Sigma, G7516-25G), and 0.01% Triton X-100 (Sigma, T9284-10L). Nanoliter quantities of 10-point, 3-fold serial dilution in DMSO was pre-dispensed into 1536 assay plates (Corning, #3724BC) for a final test concentration of 25 μM to 1.3 nM, top to lowest dose, respectively. Enzyme USP25, construct USP25-His6, (Boston Biochem E-546). Concentration and incubation times were optimized for the maximal signal-to-background while maintaining initial velocity conditions at a fixed substrate concentration. The final concentration of the enzyme in the assay was 75 pM. Final substrate (Ub-Rh110; Ubiquitin-Rhodamine 110, R&D Systems #U-555) concentration was 25 nM with [Ub-Rh110]<<Km. 3 μL of 2× enzyme was added to assay plates (pre-stamped with compound) preincubated with […] for 30 minutes and then 3 μL of 2×Ub-Rh110 was added to assay plates. Plates were incubated for 45 minutes at room temperature before addition of 3 μL of stop solution (final concentration of 10 mM citric acid (Sigma, 251275-500G)). Fluorescence was read on the Envision (Excitation at 485 nm and Emission at 535 nm; Perkin Elmer) or on the PheraSTAR (Excitation at 485 nm and Emission at 535 nm; BMG Labtech).
IC50 values were determined by curve fitting of the standard 4 parameter logistic fitting algorithm included in the Activity Base software package: IDBS XE Designer Model 205. Data is fitted using the Levenburg Marquardt algorithm.

| SMILES | IC50 |
| --- | --- |
| Cc1ccc2c(N)c(C(=O)N[C@H]3COc4cc(N5CCNCC5)ccc4C3)sc2n1 (single isomer, unassigned) [Example 1-1] | 200 to 2000 nM |
| Cc1ccc2c(N)c(C(=O)N[C@@H]3COc4cc(N5CCNCC5)ccc4C3)sc2n1 (single isomer, unassigned) [Example 1-2] | > 2000 nM |
| Cc1ccc2c(N)c(C(=O)N[C@H]3COc4cc(N5CC6CCC(C5)N6)ccc4C3)sc2n1 (single isomer, unassigned) [Example 1-3] | 1 to 50 nM |
| Cc1ccc2c(N)c(C(=O)N[C@@H]3COc4cc(N5CC6CCC(C5)N6)ccc4C3)sc2n1 (single isomer, unassigned) [Example 1-4] | > 2000 nM |
| Cc1ccc2c(N)c(C(=O)N[C@H]3COc4cc(N5CC6CCCC(C5)N6)ccc4C3)sc2n1 (single isomer, unassigned) [Example 1-5] | 1 to 50 nM |
| Cc1ccc2c(N)c(C(=O)N[C@@H]3COc4cc(N5CC6CCCC(C5)N6)ccc4C3)sc2n1 (single isomer, unassigned) [Example 1-6] | > 2000 nM |
| Cc1ccc2c(N)c(C(=O)N[C@H]3COc4cc(N5CCN[C@H](C)[C@@H]5C)ccc4C3)sc2n1 (single isomer, unassigned) [Example 1-9] | 200 to 2000 nM |
| Cc1ccc2c(N)c(C(=O)N[C@@H]3COc4cc(N5CCN[C@H](C)[C@@H]5C)ccc4C3)sc2n1 (single isomer, unassigned) [Example 1-10] | 200 to 2000 nM |
| Cc1ccc2c(N)c(C(=O)N[C@H]3COc4cc(N5CCN[C@H](C)[C@H]5C)ccc4C3)sc2n1 (single isomer, unassigned) [Example 1-11] | 50 to 200 nM |
| Cc1ccc2c(N)c(C(=O)N[C@@H]3COc4cc(N5CCN[C@H](C)[C@H]5C)ccc4C3)sc2n1 (single isomer, unassigned) [Example 1-12] | 1 to 50 nM |
| Cc1ccc2c(N)c(C(=O)N[C@H]3COc4cc(N5CCN[C@@H](C)[C@@H]5C)ccc4C3)sc2n1 (single isomer, unassigned) [Example 1-13] | 200 to 2000 nM |
| Cc1ccc2c(N)c(C(=O)N[C@@H]3COc4cc(N5CCN[C@@H](C)[C@@H]5C)ccc4C3)sc2n1 (single isomer, unassigned) [Example 1-14] | 200 to 2000 nM |
| Cc1nc2sc(C(=O)N[C@H]3COc4cc(N5CCNCC5)ccc4C3)c(N)c2cc1F (single isomer, unassigned) [Example 1-15] | 50 to 200 nM |
| Cc1nc2sc(C(=O)N[C@@H]3COc4cc(N5CCNCC5)ccc4C3)c(N)c2cc1F (single isomer, unassigned) [Example 1-16] | > 2000 nM |
| Nc1c(C(=O)N[C@H]2COc3cc(N4CC5CCC(C4)N5)ccc3C2)sc2ncc(F)cc12 (single isomer, unassigned) [Example 1-17] | 200 to 2000 nM |
| Nc1c(C(=O)N[C@@H]2COc3cc(N4CC5CCC(C4)N5)ccc3C2)sc2ncc(F)cc12 (single isomer, unassigned) [Example 1-18] | > 2000 nM |
| Cc1cnc2c(N)c(C(=O)N[C@H]3COc4cc(N5CCNCC5)ccc4C3)sc2n1 (single isomer, unassigned) [Example 1-21] | 200 to 2000 nM |
| Cc1cnc2c(N)c(C(=O)N[C@@H]3COc4cc(N5CCNCC5)ccc4C3)sc2n1 (single isomer, unassigned) [Example 1-22] | > 2000 nM |
| CCn1ccc2cc(C(=O)N[C@@H]3COc4cc(N5CC6CCC(C5)N6)ccc4C3)cnc21 (single isomer, unassigned) [Example 1-27] | > 2000 nM |
| CCn1ccc2cc(C(=O)N[C@H]3COc4cc(N5CC6CCC(C5)N6)ccc4C3)cnc21 (single isomer, unassigned) [Example 1-28] | 50 to 200 nM |
| Cc1ccc2c(N)c(C(=O)N[C@@H]3COc4cc(N5CC6CCC(C5)N6)cc(F)c4C3)sc2n1 (single isomer, unassigned) [Example 1-30] | > 2000 nM |
| Cc1ccc2c(N)c(C(=O)N[C@H]3COc4cc(N5CCNCC5)c(OC(F)(F)F)cc4C3)sc2n1 (single isomer, unassigned) [Example 1-31] | > 2000 nM |
| Cc1ccc2c(N)c(C(=O)N[C@@H]3COc4cc(N5CCNCC5)c(OC(F)(F)F)cc4C3)sc2n1 (single isomer, unassigned) [Example 1-32] | 200 to 2000 nM |
